According to paper PMC3222737 (Biochemistry, 2011):
“And” between values parts separate entries of the source, which are not always exact repeats. Equal values may be shown once. Read-outs that look alike come from different tables or passages of the source.

Columns and labels:
[1] = target: T1, MTAP (Homo sapiens, UniProt Q13126); assay: Isothermal titration calorimetry of ligand binding to human MTAP; settings: for ΔG: calculated from Ki; for −TΔS: from ΔG=ΔH−TΔS
T1 sequence (Q13126 1-283): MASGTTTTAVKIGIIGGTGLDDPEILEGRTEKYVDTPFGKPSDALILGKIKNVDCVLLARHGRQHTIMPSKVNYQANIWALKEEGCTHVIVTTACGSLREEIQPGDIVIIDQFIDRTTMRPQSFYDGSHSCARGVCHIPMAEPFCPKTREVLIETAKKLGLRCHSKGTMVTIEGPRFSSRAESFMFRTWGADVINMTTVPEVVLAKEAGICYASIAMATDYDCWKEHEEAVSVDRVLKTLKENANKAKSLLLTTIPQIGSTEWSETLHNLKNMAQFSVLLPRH

[2] = target: T1, MTAP; assay: Analytical ultracentrifugation sedimentation velocity of MTAP complexes; settings: for S(20,w) (normalized): MTAP 134 μM + inhibitor 400 μM, normalized for mass of bound ligands; for S(20,w) relative change: versus apo MTAP
[3] = target: T1, MTAP; settings: cited from earlier work; for Ki: human MTAP
[4] = tested on: FaDu; settings: FaDu cells; cited from earlier work
[5] = tested on: human lung cancer cell lines; settings: mouse xenografts; cited from earlier work
[6] = tested on: FaDu tumors; settings: mouse model; cited from earlier work
[7] = in vivo; cited from earlier work
[8] = tested on: Cal27; settings: Cal27 cells; cited from earlier work
[9] = second generation inhibitors, identical sites
[10] = second generation inhibitors, single set of identical sites
[11] = first generation inhibitors, major binding sites
[12] = first generation inhibitors, third site
[13] = first generation inhibitors, major binding sites (first two sites)

ΔH [1, 9]	ΔG [1, 9]	−TΔS [1, 9]	n (number of sites) [1, 10]	S(20,w) (normalized) [2]	S(20,w) relative change [2]	Structure (SMILES)	Kd [3, 10]	n (number of sites) [1, 11]	ΔH [1, 11]	ΔG [1, 11]	−TΔS [1, 11]	n (number of sites) [1, 12]	ΔH [1, 12]	ΔG [1, 12]	−TΔS [1, 12]	Kd [3, 13]	further results
2.6 ± 0.1 kcal/mol	-15.0 kcal/mol and -15.0 ± 0.3 kcal/mol	-17.6 kcal/mol and -17.6 ± 0.3 kcal/mol	3	6.012 ± 0.067	2.63% and 2.63 ± 0.12%	Nc1ncnc2c(CN3CC(CSc4ccc(Cl)cc4)[C@H](O)C3)c[nH]c12 (some centres unmarked) [p-Cl-PhT-DADMe-ImmA]	0.01 ± 0.005 nM	–	–	–	–	–	–	–	–	–	–
1.5 ± 0.1 kcal/mol	-13.7 kcal/mol and -13.7 ± 0.1 kcal/mol	-15.2 kcal/mol and -15.2 ± 0.1 kcal/mol	3	5.904 ± 0.016	0.79 ± 0.05%	CSC[C@H]1CN(Cc2c[nH]c3c(N)ncnc23)C[C@@H]1O [MT-DADMe-ImmA]	0.09 ± 0.01 nM	–	–	–	–	–	–	–	–	–	apoptosis [4]: induces apoptosis; tumor growth and metastases [5]: inhibits the tumor growth and metastases; tumor growth [6]: prevents the growth of FaDu tumors; systemic toxicity [7]: low systemic toxicity; apoptosis [8]: induces apoptosis; Ki ([3]; read-out: Ki (dissociation constant by inhibition kinetics)): 0.09 nM

Further lines, the molecule ahead of its results:

Structure (SMILES)	ΔH [1, 9]	ΔG [1, 9]	−TΔS [1, 9]	n (number of sites) [1, 10]	S(20,w) (normalized) [2]	S(20,w) relative change [2]	Kd [3, 10]	n (number of sites) [1, 11]	ΔH [1, 11]	ΔG [1, 11]	−TΔS [1, 11]	n (number of sites) [1, 12]	ΔH [1, 12]	ΔG [1, 12]	−TΔS [1, 12]	Kd [3, 13]	further results
CCCSC[C@H]1N[C@@H](c2c[nH]c3c(N)ncnc23)[C@H](O)[C@@H]1O [nPrT-ImmA]	–	–	–	–	–	–	–	2.13 ± 0.04	0.2 kcal/mol and 0.24 ± 0.03 kcal/mol	-13.2 kcal/mol and -13.2 ± 0.03 kcal/mol	-13.4 kcal/mol and -13.4 ± 0.1 kcal/mol	0.9 ± 0.1	1.1 ± 0.2 kcal/mol	-8.2 ± 0.4 kcal/mol	-9.3 ± 0.4 kcal/mol	0.214 ± 0.01 nM	–
Nc1ncnc2[nH]cnc12 [Adenine, reference compound]	–	–	–	–	–	–	–	–	–	–	–	–	–	–	–	–	Kd ([1]; Kd, adenine, 1st site, three sequential binding sites model, derived from ITC data fitting): 3000 ± 1000 nM; ΔH ([1]; adenine, 1st site): -0.003 ± 0.2 kcal/mol; n (number of sites) ([1]; adenine, 1st site, sequential model): 1; ΔG ([1]; adenine, 1st site): -7.6 ± 0.2 kcal/mol; −TΔS ([1]; adenine, 1st site): -7.6 ± 0.3 kcal/mol; ΔH ([1]; adenine, 2nd site): 2.4 ± 0.2 kcal/mol; n (number of sites) ([1]; adenine, 2nd site, sequential model): 1; ΔG ([1]; adenine, 2nd site): -7.7 ± 0.2 kcal/mol; −TΔS ([1]; adenine, 2nd site): -10.1 ± 0.3 kcal/mol; ΔH ([1]; adenine, 3rd site): -2.6 ± 0.8 kcal/mol; n (number of sites) ([1]; adenine, 3rd site, sequential model): 1; ΔG ([1]; adenine, 3rd site): -5.6 ± 0.5 kcal/mol; −TΔS ([1]; adenine, 3rd site): -3.0 ± 0.9 kcal/mol; Entropy (−TΔS) share of the binding energy ([1]; adenine, third site): 54%
CSCC1NC(c2c[nH]c3c(N)ncnc23)[C@@H](O)[C@H]1O (some centres unmarked) [MT-ImmA]	–	–	–	–	–	–	–	2.42 ± 0.04	0.2 kcal/mol and 0.24 ± 0.04 kcal/mol	-12.3 kcal/mol and -12.3 ± 0.1 kcal/mol	-12.5 kcal/mol and -12.5 ± 0.1 kcal/mol	0.58 ± 0.09	2.7 ± 0.4 kcal/mol	-8.4 ± 0.3 kcal/mol	-11.1 ± 0.5 kcal/mol	1 ± 0.1 nM	Ki [3]: 1 nM
